From patent publication US20250388896A1, “COMPOSITION AND METHODS FOR TRANSGENE INSERTION” (ARTISAN DEVELOPMENT LABS, INC, priority 2022, published 2025)

How the values were obtained:
AAVS1 = test: CAR insertion efficiency at AAVS1 in primary T-cells by flow cytometry; format: cell-based, human; conditions: primary Pan T-cells; recovery medium pretreated with 2 μM M3814; 75:50 pmol gNA:MAD7, 1.5 μg μL^−1 donor template, PGA
Procedure: T-cells were isolated from human peripheral blood obtained from healthy adults by immune-magnetic negative selection using the EasySep Human T-cell Isolation Kit ([sequence] Technologies). After isolation, T-cells were activated in 25 μL mL^−1 ImmunoCult Human CD3/CD28/CD2 T-Cell Activator ([sequence] Technologies) in ImmunoCult-XF T-Cell Expansion Medium ([sequence] Technologies) containing 12.5 ng mL^−1 Human Recombinant IL-2, 5 ng mL^−1 IL-7, and 5 ng mL^−1 IL-15 ([sequence] Technologies) and seeded at 1.0×10^6 cells mL^−1. Until transfection 48 hours later, the cells were cultured at 37° C. in 5% CO2 incubators.
Donor templates comprising site-specific homology arms, respective promoter, and respective gene (GFP or Hu19 scFv-CD8α-CD28-CD3ζ CAR) were amplified from corresponding pTwist Ampicillin high-copy plasmids (Twist Bioscience) using homology arms-specific PCR primers. […] Purified HDR templates were collected and quantified on NanoDrop One Microvolume UV-Vis Spectrophotometer (ThermoFisher Scientific). […] HDR templates were collected, diluted, and concentrations quantified using Qubit dsDNA HS Assay Kit (ThermoFisher Scientific). […]

AAVS1 locus = test: INDEL frequency at the AAVS1 locus in Jurkat cells; format: cell-based, human
Procedure: Ribonucleoprotein complexes (RNPs) were generated by incubating respective guide nucleic acids (gNAs) with MAD7 in the molar ratio of 3:2 gNA:MAD7 for 15 minutes at room temperature immediately before transfection. For Jurkat experiments, the RNP complexes were generated by mixing the respective gNA (150 pmol), MAD7 (100 pmol), and nuclease-free water, unless otherwise stated. […] Lonza 4D Nucleofector with Shuttle unit (V4SC-2960 Nucleocuvette Strips) was used for transfection, following the manufacturer's instructions. […] Extracted genomic DNA was quantified using the NanoDrop (ThermoFisher Scientific). […] The DNA was eluted from the beads with nuclease-free water and the size of the purified amplicons analyzed on a 2% agarose E-gel using the E-gel electrophoresis system (ThermoFisher Scientific). In the second PCR, unique pairs of Illumina-compatible indexes (Nextera XT Index Kit v2) were added to the amplicons using the KAPA HiFi HotStart Ready Mix (Roche). […] Sizes of the purified DNA fragments were validated on a 2% agarose gel using the E-gel electrophoresis system (ThermoFisher Scientific), quantified using Qubit dsDNA HS Assay Kit (Thermo Fisher) and then pooled in equimolar concentrations. […] The final library was sequenced on Illumina MiSeq System using the MiSeq Reagent Kit v.2 (300 cycles, 2×250 bp, paired-end reads). […]

Row | Compound | more efficient CAR insertion than other experiments (AAVS1) [times] | activity of gNA targeting AAVS1 (INDEL frequency) (AAVS1 locus)
1 | COc1ccc([C@@H](O)c2cc(-c3ncnc4cc(N5CCOCC5)ccc34)c(F)cc2Cl)nn1 [M3814] | ~5 | 
2 | crAAVS1: highly active gNA targeting the AAVS1 safe-harbor locus (guide TTAGGATGGCCTTCTCCGACG; listed as DNA, further chemistry not given here) |  | highly active
